Test results: patent US20180370927A1, “MICROBIOCIDAL OXADIAZOLE DERIVATIVES” (SYNGENTA PARTICIPATIONS AG, priority 2015, published 2018)

Legend:
[1] = tested on: Glomerella lacenarium (Colletotrichum lacenarium); test: Glomerella lacenarium (Colletotrichum lacenarium) liquid culture / cucumber / preventative (anthracnose); format: cell-based; settings: 20 ppm in the applied formulation, liquid culture in PDB, 24° C., 3 to 4 days after application, read-out: disease control (inhibition of growth, photometric) compared to untreated control
Procedure, shortened: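 At 20 ppm in the applied formulation, compounds were mixed with fungal spores in potato dextrose broth and held at 24° C. After 3–4 days, photometric growth measurement gave percent antifungal activity relative to untreated control.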

Phakopsora pachyrhizi = Phakopsora pachyrhizi / soybean / leaf disc preventative (Asian soybean rust); format: in vivo; settings: foliar, 200 ppm in the applied formulation, soybean leaf disks, assessed 12 to 14 days after application, read-out: disease control compared to untreated control leaf disks
Protocol: Leaf disks or leaf segments of various plant species are cut from plants grown in a greenhouse. The cut leaf disks or segments are placed in multiwell plates (24-well format) onto water agar. The leaf disks are sprayed with a test solution before (preventative) or after (curative) inoculation. Compounds to be tested are prepared as DMSO solutions (max. 10 mg/mL) which are diluted to the appropriate concentration with 0.025% Tween20 just before spraying. The inoculated leaf disks or segments are incubated under defined conditions (temperature, relative humidity, light, etc.) according to the respective test system. A single evaluation of disease level is carried out 3 to 14 days after inoculation, depending on the pathosystem. Percent disease control relative to the untreated check leaf disks or segments is then calculated.
Example 3: Fungicidal Activity Against Phakopsora pachyrhizi/Soybean/Leaf Disc Preventative (Asian Soybean Rust)
Soybean leaf disks are placed on water agar in multiwell plates (24-well format) and sprayed with the formulated test compound diluted in water. One day after application leaf discs are inoculated by spraying a spore suspension on the lower leaf surface. After an incubation period in a climate cabinet of 24-36 hours in darkness at 20° C. and 75% relative humidity leaf disc are kept at 20° C. with 12 hours light/day and 75% relative humidity. The activity of a compound is assessed as percent disease control compared to untreated when an appropriate level of disease damage appears in untreated check leaf disks (12 to 14 days after application).
The following compounds at 200 ppm in the applied formulation give at least 80% disease control in this test when compared to untreated control leaf disks under the same conditions, which show extensive disease development.

[2] = tested on: Puccinia recondita f. Sp. Tritici; test: Puccinia recondita f. sp. tritici / wheat / leaf disc preventative (brown rust); format: in vivo; settings: foliar, 200 ppm in the applied formulation, wheat leaf segments, preventative, assessed 7 to 9 days after application, read-out: disease control compared to untreated control leaf disks
Procedure, shortened: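 Wheat cv. Kanzler leaf segments on agar sprayed with formulated compound in water, inoculated with rust spores 1 day later. Incubated at 19° C, 75% rh, 12 h light/12 h dark; percent disease control versus untreated scored 7 to 9 days after application; tested at 200 ppm.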

[3] = tested on: Puccinia recondita f. Sp. Tritici; test: Puccinia recondita f. sp. tritici / wheat / leaf disc curative (brown rust); format: in vivo; settings: foliar, 200 ppm in the applied formulation, wheat leaf segments, curative (applied 1 day after inoculation), assessed 6 to 8 days after application, read-out: disease control compared to untreated control leaf disks
Procedure, shortened: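 Curative treatment: formulated compound in water was applied 1 day post-inoculation to spore-inoculated wheat cv. Kanzler segments held on agar. Segments stayed at 19° C and 75% relative humidity (12 h photoperiod after application), and disease control relative to untreated checks was assessed 6 to 8 days later.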

C=CCN(Cc1ccc(-c2noc(C(F)(F)F)n2)cc1)C(=O)C(=O)N(C)C [Compound 4.25, N′-allyl-N,N-dimethyl-N′-[[4-[5-(trifluoromethyl)-1,2,4-oxadiazol-3-yl]phenyl]methyl] oxamide]
≥ 80%: inhibition at 20 ppm [1] | pest or weed control at 200 ppm (Phakopsora pachyrhizi) | pest or weed control at 200 ppm [2] | pest or weed control at 200 ppm [3]

CCN(Cc1ccc(-c2noc(C(F)(F)F)n2)cc1)C(=O)C(C)=O [Compound 1.18, N-ethyl-2-oxo-N-[[4-[5-(trifluoromethyl)-1,2,4-oxadiazol-3-yl]phenyl]methyl]propanamide]
≥ 80%: inhibition at 20 ppm [1] | pest or weed control at 200 ppm (Phakopsora pachyrhizi) | pest or weed control at 200 ppm [2] | pest or weed control at 200 ppm [3]

CC(C)CC(=O)C(=O)NCc1ccc(-c2noc(C(F)(F)F)n2)c(F)c1F [Compound 1.47, N-[[2,3-difluoro-4-[5-(trifluoromethyl)-1,2,4-oxadiazol-3-yl]phenyl]methyl]-4-methyl-2-oxo-pentanamide]
≥ 80%: inhibition at 20 ppm [1] | pest or weed control at 200 ppm (Phakopsora pachyrhizi) | pest or weed control at 200 ppm [2] | pest or weed control at 200 ppm [3]

CONC(=O)C(=O)NCc1ccc(-c2noc(C(F)(F)F)n2)cc1 [Compound 4.58, N′-methoxy-N-[[4-[5-(trifluoromethyl)-1,2,4-oxadiazol-3-yl]phenyl]methyl] oxamide]
≥ 80%: inhibition at 20 ppm [1] | pest or weed control at 200 ppm (Phakopsora pachyrhizi) | pest or weed control at 200 ppm [2] | pest or weed control at 200 ppm [3]

CN(C)C(=O)C(=O)N(C)Cc1ccc(-c2noc(C(F)(F)F)n2)cc1 [Compound 4.29, N,N,N′-trimethyl-N'-[[4-[5-(trifluoromethyl)-1,2,4-oxadiazol-3-yl]phenyl]methyl] oxamide]
≥ 80%: inhibition at 20 ppm [1] | pest or weed control at 200 ppm (Phakopsora pachyrhizi) | pest or weed control at 200 ppm [2] | pest or weed control at 200 ppm [3]

CON(C)C(=O)C(=O)N(Cc1ccc(-c2noc(C(F)(F)F)n2)cc1)C1CC1 [Compound 4.105, N′-cyclopropyl-N-methoxy-N-methyl-N′-[[4-[5-(trifluoromethyl)-1,2,4-oxadiazol-3-yl]phenyl]methyl] oxamide]
≥ 80%: inhibition at 20 ppm [1] | pest or weed control at 200 ppm (Phakopsora pachyrhizi) | pest or weed control at 200 ppm [2] | pest or weed control at 200 ppm [3]

CON(Cc1ccc(-c2noc(C(F)(F)F)n2)cc1)C(=O)C(=O)c1ccco1 [Compound 1.90, 2-(2-furyl)-N-methoxy-2-oxo-N-[[4-[5-(trifluoromethyl)-1,2,4-oxadiazol-3-yl]phenyl]methyl]acetamide]
≥ 80%: inhibition at 20 ppm [1] | pest or weed control at 200 ppm (Phakopsora pachyrhizi) | pest or weed control at 200 ppm [2] | pest or weed control at 200 ppm [3]

CCN(C)C(=O)C(=O)N(Cc1ccc(-c2noc(C(F)(F)F)n2)cc1)OC [Compound 4.73, N-ethyl-N′-methoxy-N-methyl-N′-[[4-[5-(trifluoromethyl)-1,2,4-oxadiazol-3-yl]phenyl]methyl] oxamide]
≥ 80%: inhibition at 20 ppm [1] | pest or weed control at 200 ppm (Phakopsora pachyrhizi) | pest or weed control at 200 ppm [2] | pest or weed control at 200 ppm [3]

CC(C)CC(=O)C(=O)NCc1ccc(-c2noc(C(F)(F)F)n2)c(F)c1 [Compound 1.43, N-[[3-fluoro-4-[5-(trifluoromethyl)-1,2,4-oxadiazol-3-yl]phenyl]methyl]-4-methyl-2-oxo-pentanamide]
≥ 80%: inhibition at 20 ppm [1] | pest or weed control at 200 ppm (Phakopsora pachyrhizi) | pest or weed control at 200 ppm [2] | pest or weed control at 200 ppm [3]

CCCC(=O)C(=O)N(C)Cc1ccc(-c2noc(C(F)(F)F)n2)cc1 [Compound 1.21, N-methyl-2-oxo-N-[[4-[5-(trifluoromethyl)-1,2,4-oxadiazol-3-yl]phenyl]methyl]pentanamide]
≥ 80%: inhibition at 20 ppm [1] | pest or weed control at 200 ppm (Phakopsora pachyrhizi) | pest or weed control at 200 ppm [2] | pest or weed control at 200 ppm [3]

CCC(=O)C(=O)N(CC)Cc1ccc(-c2noc(C(F)(F)F)n2)cc1 [Compound 1.99, N-ethyl-2-oxo-N-[[4-[5-(trifluoromethyl)-1,2,4-oxadiazol-3-yl]phenyl]methyl]butanamide]
≥ 80%: inhibition at 20 ppm [1] | pest or weed control at 200 ppm (Phakopsora pachyrhizi) | pest or weed control at 200 ppm [2] | pest or weed control at 200 ppm [3]

CON(C)C(=O)C(=O)N(Cc1ccc(-c2noc(C(F)(F)F)n2)cc1)OC [Compound 4.65, N,N′-dimethoxy-N-methyl-N′-[[4-[5-(trifluoromethyl)-1,2,4-oxadiazol-3-yl]phenyl]methyl] oxamide]
≥ 80%: inhibition at 20 ppm [1] | pest or weed control at 200 ppm (Phakopsora pachyrhizi) | pest or weed control at 200 ppm [2] | pest or weed control at 200 ppm [3]

O=C(NCc1c(F)cc(-c2noc(C(F)(F)F)n2)cc1F)C(=O)c1cccs1 [Compound 1.70, N-[[2,6-difluoro-4-[5-(trifluoromethyl)-1,2,4-oxadiazol-3-yl]phenyl]methyl]-2-oxo-2-(2-thienyl)acetamide]
≥ 80%: inhibition at 20 ppm [1] | pest or weed control at 200 ppm (Phakopsora pachyrhizi) | pest or weed control at 200 ppm [2] | pest or weed control at 200 ppm [3]

CC(C)(C)C(=O)C(=O)NCc1c(F)cc(-c2noc(C(F)(F)F)n2)cc1F [Compound 1.71, N-[[2,6-difluoro-4-[5-(trifluoromethyl)-1,2,4-oxadiazol-3-yl]phenyl]methyl]-3,3-dimethyl-2-oxo-butanamide]
≥ 80%: inhibition at 20 ppm [1] | pest or weed control at 200 ppm (Phakopsora pachyrhizi) | pest or weed control at 200 ppm [2] | pest or weed control at 200 ppm [3]

C=CCNC(=O)C(=O)N(Cc1ccc(-c2noc(C(F)(F)F)n2)cc1)OC [Compound 4.76, N-allyl-N′-methoxy-N′-[[4-[5-(trifluoromethyl)-1,2,4-oxadiazol-3-yl]phenyl]methyl] oxamide]
≥ 80%: inhibition at 20 ppm [1] | pest or weed control at 200 ppm (Phakopsora pachyrhizi) | pest or weed control at 200 ppm [2] | pest or weed control at 200 ppm [3]

O=C(NCc1ccc(-c2noc(C(F)(F)F)n2)cc1)C(=O)c1ccco1 [Compound 1.82, 2-(2-furyl)-2-oxo-N-[[4-[5-(trifluoromethyl)-1,2,4-oxadiazol-3-yl]phenyl]methyl]acetamide]
≥ 80%: inhibition at 20 ppm [1] | pest or weed control at 200 ppm (Phakopsora pachyrhizi) | pest or weed control at 200 ppm [2] | pest or weed control at 200 ppm [3]

CCC(=O)C(=O)N(Cc1ccc(-c2noc(C(F)(F)F)n2)cc1)C(C)C [Compound 1.32]
≥ 80%: inhibition at 20 ppm [1] | pest or weed control at 200 ppm (Phakopsora pachyrhizi) | pest or weed control at 200 ppm [2] | pest or weed control at 200 ppm [3]

CCC(=O)C(=O)NCc1ccc(-c2noc(C(F)(F)F)n2)cc1 [Compound 1.53, 2-oxo-N-[[4-[5-(trifluoromethyl)-1,2,4-oxadiazol-3-yl]phenyl]methyl]butanamide]
≥ 80%: inhibition at 20 ppm [1] | pest or weed control at 200 ppm (Phakopsora pachyrhizi) | pest or weed control at 200 ppm [2] | pest or weed control at 200 ppm [3]

CCC(=O)C(=O)N(Cc1ccc(-c2noc(C(F)(F)F)n2)cc1F)OC [Compound 1.58, N-[[2-fluoro-4-[5-(trifluoromethyl)-1,2,4-oxadiazol-3-yl]phenyl]methyl]-N-methoxy-2-oxo-butanamide]
≥ 80%: inhibition at 20 ppm [1] | pest or weed control at 200 ppm (Phakopsora pachyrhizi) | pest or weed control at 200 ppm [2] | pest or weed control at 200 ppm [3]

CON(Cc1ccc(-c2noc(C(F)(F)F)n2)cc1)C(=O)C(=O)N(C)C [Compound 4.39, N′-methoxy-N,N-dimethyl-N′-[[4-[5-(trifluoromethyl)-1,2,4-oxadiazol-3-yl]phenyl]methyl] oxamide]
≥ 80%: inhibition at 20 ppm [1] | pest or weed control at 200 ppm (Phakopsora pachyrhizi) | pest or weed control at 200 ppm [2] | pest or weed control at 200 ppm [3]

CCN(Cc1ccc(-c2noc(C(F)(F)F)n2)cc1)C(=O)C(N)=O [Compound 4.28, N′-ethyl-N′-[[4-[5-(trifluoromethyl)-1,2,4-oxadiazol-3-yl]phenyl]methyl] oxamide]
≥ 80%: inhibition at 20 ppm [1] | pest or weed control at 200 ppm (Phakopsora pachyrhizi) | pest or weed control at 200 ppm [2] | pest or weed control at 200 ppm [3]
